Reference: US7741488B2, “Tetrahydropyridothiophenes as antiproliferative agents for the treatment of cancer” (4SC AG, priority 2005, dated 2010)
pIC50: −log10 of the molar value.

What was measured:
[1] = system: RKO (RKOp27) human colon adenocarcinoma cells; test: Alamar Blue cell viability assay, anti-proliferative/cytotoxic activity on proliferating (uninduced) RKO p27 cells; assay type: cell-based; details: RKOp27, 72 h, proliferating cells without inducer Ponasterone A
Experimental: The anti-proliferative/cytotoxic activity of the compounds described herein, can be tested on subclones of RKO (RKOp27) human colon adenocarcinoma cells (Schmidt et al., Oncogene 19, 2423-2429; 2000) using the Alamar Blue cell viability assay (described in O'Brien et al. Eur J Biochem 267, 5421-5426, 2000). The compounds are dissolved as 20 mM solutions in dimethylsulfoxide (DMSO) and subsequently diluted in semi-logarithmic steps. DMSO dilutions are further diluted 1:100 into Dulbecco's modified Eagle's medium (DMEM) containing 10% fetal calf serum to a final concentration twice as much as the final concentration in the test. RKO subclones are seeded into 96 well flat bottom plates at a density of 4000 cells per well in a volume of 50 μl per well. 24 hours after seeding the 50 μl each of the compound dilutions in DMEM medium are added into each well of the 96 Well plate. Each compound dilution is tested as quadruplicates. Wells containing untreated control cells are filled with 50 μl DMEM medium containing 1% DMSO. The cells are then incubated with the substances for 72 hours at 37° C. in a humidified atmosphere containing 5% carbon dioxide. To determine the viability of the cells, 10 μl of an Alamar Blue solution (Biosource) are added and the fluorescence is measured at an extinction of 544 nm and an emission of 590 nm. For the calculation of the cell viability the emission value from untreated cells is set as 100% viability and the emission rates of treated cells are set in relation to the values of untreated cells. Viabilities are expressed as % values.
The corresponding IC50 values of the compounds for anti-proliferative/cytotoxic activity are determined from the concentration-effect curves.
Representative IC50 values for anti-proliferation/cytotoxicity determined in the mentioned assay follow from the following table A, in which the numbers of the compound correspond to the numbers of the examples.

[2] = system: RKOp27 colon adenocarcinoma cells arrested by expression of ectopic p27Kip1; test: Alamar Blue cell viability assay on RKO p27 cells arrested by Ponasterone A induced p27Kip1 (cell cycle specific mode of action); assay type: cell-based; details: Homo sapiens, 72 hours, cells arrested by p27Kip1 induced with 10 μM Ponasterone A
Experimental: To determine the cell cycle specific mode of action, subclones of RKO colon adenocarcinoma cells (RKOp27 or RKOp21 as described by Schmidt et al. in Oncogene 19, 2423-2429; 2000) are seeded into 96 well flat bottom plates at a density of 16000 cells per well in a volume of 50 μl per well in DMEM growth medium with 10% FCS containing 10 μM Ponasterone A. 24 hours after seeding the 50 μl each of the compound dilutions in DMEM medium are added into each well of the 96 Well plate. Each compound dilution is tested as quadruplicates. Wells containing untreated control cells are filled with 50 μl DMEM medium containing 1% DMSO. The cells are then incubated with the substances for 72 hours at 37° C. in a humidified atmosphere containing 5% carbon dioxide. To determine the viability of the cells, 10 μl of an Alamar Blue solution (Biosource) are added and the fluorescence was measured at an extinction of 544 nm and an emission of 590 nm. For the calculation of the cell viability the emission value from untreated cells is set as 100% viability and the emission rates of treated cells are set in relation to the values of untreated cells. Viabilities are expressed as % values. Viability is compared of proliferating cells grown in the absence of the inducer Ponasterone A, versus viability of cells arrested by the expression of ectopic p27Kip1 induced by Ponasterone A.

Row | SMILES | pIC50 [1] | pIC50 [2]
1 | CCOC(=O)N1CCc2c(sc(NC(=O)CC(C)c3ccccc3OC)c2C#N)C1 (racemic) [Example 49, 3-Cyano-2-[(RS)-3-(2-methoxy-phenyl)-butanoylamino]-4,7-dihydro-5H-thieno[2,3-c]pyridine-6-carboxylic acid ethyl ester] | ≥ 6.52 | < 4.00
2 | CCOC(=O)N1CCc2c(sc(NC(=O)CCc3ccc(OC)cc3)c2C#N)C1 [Example 1, 3-Cyano-2-[3-(4-methoxy-phenyl)-propanoylamino]-4,7-dihydro-5H-thieno[2,3-c]pyridine-6-carboxylic acid ethyl ester] | ≥ 6.52 | < 4.00
3 | CCOC(=O)N1CCc2c(sc(NC(=O)CCc3cccc(OC)c3)c2C#N)C1 [Example 2, 3-Cyano-2-[3-(3-methoxy-phenyl)-propanoylamino]-4,7-dihydro-5H-thieno[2,3-c]pyridine-6-carboxylic acid ethyl ester] | ≥ 6.52 | < 4.00
4 | CCOC(=O)N1CCc2c(sc(NC(=O)CCc3ccccc3OC)c2C#N)C1 [Example 3, 3-Cyano-2-[3-(2-methoxy-phenyl)-propanoylamino]-4,7-dihydro-5H-thieno[2,3-c]pyridine-6-carboxylic acid ethyl ester] | 5.70 to 6.52 | < 4.00
5 | CCOC(=O)N1CCc2c(sc(NC(=O)CCc3cccc([N+](=O)[O-])c3)c2C#N)C1 [Example 4, 3-Cyano-2-[3-(3-nitro-phenyl)-propanoylamino]-4,7-dihydro-5H-thieno[2,3-c]pyridine-6-carboxylic acid ethyl ester] | ≥ 6.52 | < 4.00
6 | CCOC(=O)N1CCc2c(sc(NC(=O)CCc3ccc(OCC)cc3)c2C#N)C1 [Example 5, 3-Cyano-2-[3-(4-ethoxy-phenyl)-propanoylamino]-4,7-dihydro-5H-thieno[2,3-c]pyridine-6-carboxylic acid ethyl ester] | ≥ 6.52 | < 4.00
7 | CCOC(=O)N1CCc2c(sc(NC(=O)CCc3cccc(OC)c3OC)c2C#N)C1 [Example 6, 3-Cyano-2-[3-(2,3-dimethoxy-phenyl)-propanoylamino]-4,7-dihydro-5H-thieno[2,3-c]pyridine-6-carboxylic acid ethyl ester] | 5.70 to 6.52 | < 4.00
8 | CCOC(=O)N1CCc2c(sc(NC(=O)CCc3cc(OC)ccc3OC)c2C#N)C1 [Example 7, 3-Cyano-2-[3-(2,5-dimethoxy-phenyl)-propanoylamino]-4,7-dihydro-5H-thieno[2,3-c]pyridine-6-carboxylic acid ethyl ester] | 5.70 to 6.52 | < 4.00
9 | CCOC(=O)N1CCc2c(sc(NC(=O)CCc3cccc(OCC)c3)c2C#N)C1 [Example 8, 3-Cyano-2-[3-(3-ethoxy-phenyl)-propanoylamino]-4,7-dihydro-5H-thieno[2,3-c]pyridine-6-carboxylic acid ethyl ester] | 5.70 to 6.52 | < 4.00
10 | CCOc1ccccc1CCC(=O)Nc1sc2c(c1C#N)CCN(C(=O)OC(C)(C)C)C2 [Example 9, 3-Cyano-2-[3-(2-ethoxy-phenyl)-propanoylamino]-4,7-dihydro-5H-thieno[2,3-c]pyridine-6-carboxylic acid tert-butyl ester] | ≥ 6.52 | < 4.00
11 | COc1ccccc1CCC(=O)Nc1sc2c(c1C#N)CCN(C(=O)OC(C)(C)C)C2 [Example 10, 3-Cyano-2-[3-(2-methoxy-phenyl)-propanoylamino]-4,7-dihydro-5H-thieno[2,3-c]pyridine-6-carboxylic acid tert-butyl ester] | ≥ 6.52 | < 4.00
12 | COc1cccc(CCC(=O)Nc2sc3c(c2C#N)CCN(C(=O)OC(C)(C)C)C3)c1 [Example 11, 3-Cyano-2-[3-(3-methoxy-phenyl)-propanoylamino]-4,7-dihydro-5H-thieno[2,3-c]pyridine-6-carboxylic acid tert-butyl ester] | ≥ 6.52 | < 4.00
13 | CCOC(=O)N1CCc2c(sc(NC(=O)CCc3ccccc3OC(F)F)c2C#N)C1 [Example 12, 3-Cyano-2-{3-[2-(1,1-difluoro-methoxy)-phenyl]-propanoylamino}-4,7-dihydro-5H-thieno[2,3-c]pyridine-6-carboxylic acid ethyl ester] | ≥ 6.52 | < 4.00
14 | CCOC(=O)N1CCc2c(sc(NC(=O)CCc3cc(Br)cc(OC)c3OC)c2C#N)C1 [Example 14, 2-[3-(5-Bromo-2,3-dimethoxy-phenyl)-propanoylamino]-3-cyano-4,7-dihydro-5H-thieno[2,3-c]pyridine-6-carboxylic acid ethyl ester] | ≥ 6.52 | < 4.00
15 | CCOC(=O)N1CCc2c(sc(NC(=O)CCc3cc(Br)ccc3OC)c2C#N)C1 [Example 15, 2-[3-(5-Bromo-2-methoxy-phenyl)-propanoylamino]-3-cyano-4,7-dihydro-5H-thieno[2,3-c]pyridine-6-carboxylic acid ethyl ester] | ≥ 6.52 | < 4.00
16 | CCOC(=O)N1CCc2c(sc(NC(=O)CCc3cccc(OCC)c3OCC)c2C#N)C1 [Example 16, 3-Cyano-2-[3-(2,3-diethoxy-phenyl)-propanoylamino]-4,7-dihydro-5H-thieno[2,3-c]pyridine-6-carboxylic acid ethyl ester] | 5.70 to 6.52 | < 4.00
17 | CCOC(=O)N1CCc2c(sc(NC(=O)CCc3cc(C)ccc3OC)c2C#N)C1 [Example 17, 3-Cyano-2-[3-(2-methoxy-5-methyl-phenyl)-propanoylamino]-4,7-dihydro-5H-thieno[2,3-c]pyridine-6-carboxylic acid ethyl ester] | ≥ 6.52 | < 4.00
18 | CCOC(=O)N1CCc2c(sc(NC(=O)CCc3c(OC)ccc4c3OC(F)(F)C(F)(F)O4)c2C#N)C1 [Example 18, 3-Cyano-2-[3-(2,2,3,3-tetrafluoro-6-methoxy-2,3-dihydro-benzo[1,4]dioxin-5-yl)-propanoylamino]-4,7-dihydro-5H-thieno[2,3-c]pyridine-6-carboxylic acid ethyl ester] | 5.70 to 6.52 | < 4.00
19 | CCOC(=O)N1CCc2c(sc(NC(=O)CCc3ccccc3OCC)c2C#N)C1 [Example 19, 3-Cyano-2-[3-(2-ethoxyphenyl)-propanoylamino]-4,7-dihydro-5H-thieno[2,3-c]-pyridine-6-carboxylic acid ethyl ester] | ≥ 6.52 | < 4.00
20 | CCOc1ccccc1CCC(=O)Nc1sc2c(c1C#N)CCN(C(=O)OCC1COC(C)(C)O1)C2 (stereo not drawn) [Example 20, 3-Cyano-2-[3-(2-ethoxy-phenyl)-propanoylamino]-4,7-dihydro-5H-thieno[2,3-c]pyridine-6-carboxylic acid 2,2-dimethyl-[1,3]dioxolan-4-ylmethyl ester] | ≥ 6.52 | < 4.00
21 | CCOc1ccccc1CCC(=O)Nc1sc2c(c1C#N)CCN(C(=O)OCCOCc1ccccc1)C2 [Example 21, 3-Cyano-2-[3-(2-ethoxy-phenyl)-propanoylamino]-4,7-dihydro-5H-thieno[2,3-c]pyridine-6-carboxylic acid 2-benzyloxy-ethyl ester] | 5.70 to 6.52 | < 4.00
22 | COc1ccccc1CCC(=O)Nc1sc2c(c1C#N)CCN(C(=O)OCCOCc1ccccc1)C2 [Example 24, 3-Cyano-2-[3-(2-methoxy-phenyl)-propanoylamino]-4,7-dihydro-5H-thieno[2,3-c]pyridine-6-carboxylic acid 2-benzyloxy-ethyl ester] | 5.70 to 6.52 | < 4.00
23 | COc1ccccc1CCC(=O)Nc1sc2c(c1C#N)CCN(C(=O)OCCc1ccccn1)C2 [Example 25, 3-Cyano-2-[3-(2-methoxy-phenyl)-propanoylamino]-4,7-dihydro-5H-thieno[2,3-c]pyridine-6-carboxylic acid 2-pyridin-2-yl-ethyl ester] | ≥ 6.52 | < 4.00
24 | COc1ccccc1CCC(=O)Nc1sc2c(c1C#N)CCN(C(=O)OCc1ccccn1)C2 [Example 26, 3-Cyano-2-[3-(2-methoxy-phenyl)-propanoylamino]-4,7-dihydro-5H-thieno[2,3-c]pyridine-6-carboxylic acid pyridin-2-ylmethyl ester] | ≥ 6.52 | ≤ 4.40
